Source: patent US5258406A, “Sulfonimidamides” (priority 1992, dated 1993)
Like-named read-outs stand apart in the source and are kept apart here.

What was measured:
Format in all cases: in vivo
MX1 = conditions: IP, DX 10
B16 = conditions: IP, DX 10
VRC5 = tested on: VRC5
CX1 = conditions: IP, DX 10, from day 7 after implant
HC1 = conditions: IP, DX 10
LX1 = conditions: IP
Method in brief: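 Tumor fragments implanted subcutaneously by trocar in C3H mice (6C3HED) or CD1 nu/nu mice (xenografts); oral dosing in 2.5% Emulphor began day after implant (6C3HED) or after 7-day delay (xenografts). Tumor weight from caliper measurements the day after treatment ended; percent inhibition versus Emulphor-only controls.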

GC3 = conditions: IP, DX 10
[1] = tested on: X5563 Plasma Cell Myeloma; conditions: IP, DX 10
Protocol: The compounds were tested in C3H mice bearing a 6C3HED lymphosarcoma, also known as the Gardner lymphosarcoma (GLS), and in a variety of human tumor xenografts in CD1 nu/nu mice, including CX-1, LX-1, HXGC3, and VRC5. The 6C3HED lymphosarcoma was obtained from the Division of Cancer Treatment, National […] Institute, Tumor Bank, maintained at E. G. and G. Mason Research (Worcester, Mass.). The CX-1 human colon carcinoma and the LX-1 human lung carcinoma xenografts were obtained from the National Cancer Institute. The HXGC3 and VRC5 human colon xenografts were obtained from Dr. P. J. Houghton, St. Jude Children's Hospital in Memphis (see Br. J. Cancer, 37, 213 (1978)). First passage tumor was stored in liquid nitrogen using standard techniques. The transplanted tumor was reestablished from the Tumor Bank every six months or as needed. The tumor was maintained by serial passage twice weekly in C3H mice.
In the procedure the tumor was removed from passage animals and minced into 1- to 3-mm square fragments using sterile techniques. Tumor pieces were checked for sterility using both Antibiotic Medium 1 and Brain Heart Infusion (Difco, Detroit, Mich.). Recipient mice were shaved and tumor pieces were implanted subcutaneously in the auxiliary region by trocar. Drug therapy on the appropriate schedule was initiated on the day after tumor implant for 6C3HED and after a seven (7) day delay for xenografts (or other delay as noted in Table 2). The compound being tested was mixed with 2.5% Emulphor EL620 from GAF Corporation (1:40 dilution in saline). Food and water were provided ad libitium. The drug was administered orally in 0.5 ml of 2.5% Emulphor (unless otherwise indicated). The tumor was measured the day after treatment ended with two dimensional measurements (width and length) of the tumor taken using automated digital calipers interfaced to a microcomputer. Approximate weight for the tumor was calculated using the following formula [Worzalla, J. F., et al., Invest. New Drugs, 8, 241 (1990], (tumor weight in mg)=(width in mm)^2 ×(length in mm)/2.
At least one control group of an equal number of mice was treated with the same volume of 2.5% Emulphor only. The percent inhibition was determined by subtracting the ratio of the mean tumor size of the test group relative to the control group from one and multiplying the result times 100.
The results of several experiments in mice bearing a 6C3HED lymphosarcoma (or other tumor where indicated) when the indicated compounds were administered are provided in Table 2. In Table 2, column 1 gives the Example number of the compound used, column 2 lists the dose level in mg/kg, column 3 provides the percent inhibition of tumor growth, column 4 gives the number of mice which died relative to the total number of animals in the group, column 5 gives the method of administration of the compound, and column 6 gives the dosage schedule. The protocol used with other tumors was the same as with the 6C3HED lymphosarcoma.
(p) Tumor type X5563 Plasma Cell Myeloma

[2] = IP, 7.5 mg/kg, DX 10, from day 7 after implant
[3] = IP, 15 mg/kg, DX 10, from day 7 after implant
[4] = IP, 30 mg/kg, DX 10, from day 7 after implant
[5] = IP, 60 mg/kg, DX 10, from day 7 after implant
[6] = 3.75 mg/kg, DX 10 (line among ELC2 lines)
[7] = 3.75 mg/kg, DX 10, from day 7 after implant
[8] = 7.5 mg/kg, DX 10, from day 7 after implant
[9] = 15 mg/kg, DX 10, from day 7 after implant
[10] = 30 mg/kg, DX 10, from day 7 after implant

Cc1ccc(S(=N)(=O)NC(=O)Nc2ccc(Cl)cc2)cc1C (stereo not drawn) [Example 36, N-[[(4-chlorophenyl)amino]carbonyl]-3,4-dimethylbenzenesulfonimidamide]
% inhibition of tumor growth (MX1; 3.75 mg/kg): 5% | Tox/Tot (mice which died / total) (MX1; 3.75 mg/kg): 0/10 | % inhibition of tumor growth (MX1; 7.5 mg/kg): 0% | Tox/Tot (mice which died / total) (MX1; 7.5 mg/kg): 0/10 | % inhibition of tumor growth (MX1; 15 mg/kg): 0% | Tox/Tot (mice which died / total) (MX1; 15 mg/kg): 0/10 | % inhibition of tumor growth (MX1; 30 mg/kg): 12% | Tox/Tot (mice which died / total) (MX1; 30 mg/kg): 4/10 | % inhibition of tumor growth (B16; 3.75 mg/kg): 0% | Tox/Tot (mice which died / total) (B16; 3.75 mg/kg): 0/10 | % inhibition of tumor growth (B16; 7.5 mg/kg): 0% | Tox/Tot (mice which died / total) (B16; 7.5 mg/kg): 0/10 | % inhibition of tumor growth (B16; 15 mg/kg): 0% | Tox/Tot (mice which died / total) (B16; 15 mg/kg): 0/10 | % inhibition of tumor growth (B16; 30 mg/kg): 9% | Tox/Tot (mice which died / total) (B16; 30 mg/kg): 0/10 | % inhibition of tumor growth (VRC5; [2]): 0% | Tox/Tot (mice which died / total) (VRC5; [2]): 1/10 | % inhibition of tumor growth (VRC5; [3]): 0% | Tox/Tot (mice which died / total) (VRC5; [3]): 0/10 | % inhibition of tumor growth (VRC5; [4]): 44% | Tox/Tot (mice which died / total) (VRC5; [4]): 4/10 | % inhibition of tumor growth (VRC5; [5]): TOX | Tox/Tot (mice which died / total) (VRC5; [5]): 10/10 | % inhibition of tumor growth (VRC5; oral, 5 mg/kg, DX 10): 0% | Tox/Tot (mice which died / total) (VRC5; oral, 5 mg/kg, DX 10): 0/10 | % inhibition of tumor growth (VRC5; oral, 10 mg/kg, DX 10): 10% | Tox/Tot (mice which died / total) (VRC5; oral, 10 mg/kg, DX 10): 0/10 | % inhibition of tumor growth (VRC5; oral, 20 mg/kg, DX 10): 45% | Tox/Tot (mice which died / total) (VRC5; oral, 20 mg/kg, DX 10): 2/9 | % inhibition of tumor growth (CX1; 3.75 mg/kg): 4% | Tox/Tot (mice which died / total) (CX1; 3.75 mg/kg): 0/10 | % inhibition of tumor growth (CX1; 7.5 mg/kg): 10% | Tox/Tot (mice which died / total) (CX1; 7.5 mg/kg): 0/10 | % inhibition of tumor growth (CX1; 15 mg/kg): 32% | Tox/Tot (mice which died / total) (CX1; 15 mg/kg): 1/10 | % inhibition of tumor growth (CX1; 30 mg/kg): 23% | Tox/Tot (mice which died / total) (CX1; 30 mg/kg): 4/10 | % inhibition of tumor growth (HC1; 7.5 mg/kg): 1% | Tox/Tot (mice which died / total) (HC1; 7.5 mg/kg): 0/10 | % inhibition of tumor growth (HC1; 15 mg/kg): 24% | Tox/Tot (mice which died / total) (HC1; 15 mg/kg): 0/10 | % inhibition of tumor growth (HC1; 30 mg/kg): 46% | Tox/Tot (mice which died / total) (HC1; 30 mg/kg): 6/10 | % inhibition of tumor growth (HC1; 60 mg/kg): TOX | Tox/Tot (mice which died / total) (HC1; 60 mg/kg): 10/10 | % inhibition of tumor growth (LX1; [6]): 0% | Tox/Tot (mice which died / total) (LX1; [6]): 0/10 | % inhibition of tumor growth (LX1; [7]): 16% | Tox/Tot (mice which died / total) (LX1; [7]): 0/10 | % inhibition of tumor growth (LX1; [8]): 1% | Tox/Tot (mice which died / total) (LX1; [8]): 0/10 | % inhibition of tumor growth (LX1; [9]): 18% | Tox/Tot (mice which died / total) (LX1; [9]): 1/10 | % inhibition of tumor growth (LX1; [10]): TOX | Tox/Tot (mice which died / total) (LX1; [10]): 10/10 | % inhibition of tumor growth (GC3; 3.75 mg/kg): 6% | Tox/Tot (mice which died / total) (GC3; 3.75 mg/kg): 0/10 | % inhibition of tumor growth (GC3; 7.5 mg/kg): 17% | Tox/Tot (mice which died / total) (GC3; 7.5 mg/kg): 0/10 | % inhibition of tumor growth (GC3; 15 mg/kg): 13% | Tox/Tot (mice which died / total) (GC3; 15 mg/kg): 1/10 | % inhibition of tumor growth (GC3; 30 mg/kg): 12% | Tox/Tot (mice which died / total) (GC3; 30 mg/kg): 9/10 | % inhibition of tumor growth ([1]; 3.75 mg/kg): 35% | Tox/Tot (mice which died / total) ([1]; 3.75 mg/kg): 0/10 | % inhibition of tumor growth ([1]; 7.5 mg/kg): 63% | Tox/Tot (mice which died / total) ([1]; 7.5 mg/kg): 1/10 | % inhibition of tumor growth ([1]; 15 mg/kg): 88% | Tox/Tot (mice which died / total) ([1]; 15 mg/kg): 4/10 | % inhibition of tumor growth ([1]; 30 mg/kg): 97% | Tox/Tot (mice which died / total) ([1]; 30 mg/kg): 3/10
